Test results: publication PMC9457533, “Study on Metronidazole Acid-Base Behavior and Speciation with Ca^2+ for Potential Applications in Natural Waters” (Molecules, 2022)
Values joined by “and” are separate entries in the source; they are usually repeats but may differ in a detail not shown here. Equal values may be shown once. Read-outs that look alike come from different tables or passages of the source.

Assays:
[1] = Dependence of protonation constants on temperature (van't Hoff equation), thermodynamic parameters; type: physicochemical; details: t = 298.15 K, I = 0.15 mol L^-1 NaCl
Method: The protonation and formation constants values acquired at the three different temperatures of 15, 25, and 37 °C, listed in Table 1, were used to study their dependence on temperature, as already shown for several systems. The data obtained by the potentiometric measurements were analyzed using the following van’t Hoff equation:logβT = logβθ + ΔH^0(1/θ − 1/T) R ln 10(6) where logβT is the stability constant at a certain temperature (expressed in kelvin), while logβθ is the stability constant at t = 298.15 K, and R is the universal gas constant expressed as 8.314 J K^−1 mol^−1. Using the equation just reported, it was possible to calculate the protonation and formation enthalpies change values, together with Gibbs free energy and entropy changes.
(§1) The protonation constant of MNZ (L), formation constant values of Ca^2+(M)-MNZ (L), and titration parameters (analytical concentration of the reagents, standard potential E^0, junction potential) were determined by using BSTAC and STACO programs. LIANA program has provided the parameters characterizing the dependence of the protonation and formation constant values on the temperature and ionic strength. More details on software are present in ref. [59]. ^1H NMR data were processed by HypNMR software, which allows for calculating protonation and formation constant values and the individual chemical shift of species through the observed signals and assuming fast mutual exchange in the NMR time scale. UV-Vis data are processed by the HypSpec program, which allows refining of the protonation and formation constant as well as the molar absorption coefficient values (ε) of the species. The speciation diagrams and the formation percentage of the species are determined by the Hyss program.

[2] = Distribution diagram of MNZ species vs pH; type: physicochemical; details: t = 25 °C, I = 0.15 mol L^-1, CL = 2 mmol L^-1, 4 ≤ pH ≤ 10
Method: as §1

[3] = Potentiometric titrations: protonation constants of MNZ in NaCl; type: physicochemical; details: for logβ^H2L: 2H + L = H2L; for logβ^HL: H + L = HL; for logβ average value: I = 0.15 mol L^-1, average of 1H-NMR, UV; for logK^H2L: LH + H = H2L
Text: The knowledge of the protonation constants of a ligand is crucial to defining the ionization state which influences several characteristics, such as aqueous solubility, and complexation ability. The equilibrium reactions associated with the protonation constant values are the following, where the charges are omitted for simplicity and MNZ was indicated as L: iH + L = HiL β^H^iL(1) H + Hi−1L = HiL K^H^iL(2)
The potentiometric titrations were employed by Metrohm-Titrando 809 automated potentiometer with a combined glass electrode ORION, type Ross 8102SC and a Metrohm Dosino 800 automatic dispenser. The titrations were performed in cells with a capacity of 25 mL, characterized by a double wall inside which thermostated water circulates. The cells were connected to a thermostat model D1-G Haake. During the measurements, pure N2 was bubbled to avoid CO2 and O2 in solution. The system is interfaced to a PC through the Metrohm TIAMO 2.0 software, which automatically acquires the mL/mV pairs. It can control several parameters, such as e.m.f. stability, titrant delivery, and data acquisition. Estimated accuracy of this apparatus is ±0.15 mV and ±0.002 mL for e.m.f. and for readings of titrant volume. The acid-base titrations were carried out first on 25 mL solutions containing L, HCl, and NaCl as supporting electrolytes at different temperatures and ionic strength conditions. Various potentiometric titrations are performed on 25 mL containing Ca^2+-L in different ratios, in NaCl at t = 15, 25, and 37 °C and I = 0.15, 0.5 and […]. The solutions were titrated using standard NaOH solution. A calibration was associated with each measurement by titration with NaOH of a solution containing HCl, NaCl, and H2O, in order to calculate the standard electrode potential (E^0) and the pKw values.
as §1

[4] = 1H NMR titrations: protonation constants of MNZ; type: physicochemical; details: t = 25 °C, I = 0.15 mol L^-1
Method: The acid-base behavior of the ligand was also investigated by ^1H NMR. Various spectroscopic titrations were therefore carried out on solutions containing L to determine the values of the chemical shifts, and to refine the protonation constant values. The ^1H NMR spectra, shown in Figure 5 at various pH values and t = 25 °C, show four distinct signals: a singlet associated with CH3 protons, two triplets related to the protons of the two CH2, indicated as CH2a and CH2b, and a singlet of the CH proton present in the imidazole ring. An upfield of 0.3 ppm of the CH chemical shift can be observed as a consequence of the deprotonation of the imidazole group for the pH increase. A similar behavior can be observed for the CH3 in which the chemical shift is 0.2 ppm. […] Furthermore, M-L solutions were analyzed by ^1H NMR at t = 25 °C and I = 0.15 mol L^−1, using a procedure already employed for other systems. The experimental spectra were reported in the Supplementary Materials.
NMR measurements were performed by Varian 500 NMR spectrometer. The ^1H NMR spectra were recorded using 90% H2O and 10% D2O as solvent and the chemical shifts were referred to the 1,4-dioxane signal (δCHdioxane = 3.7 ppm). […] Ca^2+-L spectra were recorded at the same conditions of ionic strength, temperature, and pH range of the free ligand. […]

[5] = design: method as in PMID 23380153; details: 25 °C, I = 0.2 mol L^-1 in NaCl, water-ethanol (90:10, v/v), potentiometric titrations; cited from earlier work
[6] = design: method as in PMID 33975173; details: t = 25 °C, I = 0.1 mol L^-1 in NaClO4, spectrophotometry; cited from earlier work
[7] = t = 15 °C, I = 0.15 mol L^-1 NaCl
[8] = t = 15 °C, I = 0.5 mol L^-1 NaCl
[9] = t = 15 °C, I = 0.97 mol L^-1 NaCl
[10] = t = 25 °C, I = 0.5 mol L^-1 NaCl
[11] = t = 25 °C, I = 0.96 mol L^-1 NaCl
[12] = t = 37 °C, I = 0.14 mol L^-1 NaCl
[13] = t = 37 °C, I = 0.5 mol L^-1 NaCl
[14] = t = 37 °C, I = 0.96 mol L^-1 NaCl

Cc1ncc([N+](=O)[O-])n1CCO [MNZ, 2-Methyl-5-nitroimidazole-1-ethanol]
TΔS ([1]; L + H = LH): 14.1 kcal/mol
ΔG ([1]; L + H = LH): -15.9 kcal/mol
ΔH ([1]; L + H = LH): -8 kJ mol^-1 and −8(7) kJ mol^-1
TΔS ([1]; LH + H = LH2): 0.24 kcal/mol
ΔG ([1]; LH + H = LH2): -3.35 kcal/mol
ΔH ([1]; LH + H = LH2): -13 kJ mol^-1 and −13(3) kJ mol^-1
maximum ligand fraction of the mono-protonated species [2]: over 0.9
logβ^H2L [3, 7]: 14.559(5) ^4
logβ^H2L [3, 8]: 14.833(4)
logβ^H2L [3, 9]: 14.877(7)
logβ^H2L ([3]; t = 25 °C, I = 0.15 mol L^-1 NaCl, potentiometry): 14.130(4)
logβ^H2L [3, 10]: 15.18(4)
logβ^H2L [3, 11]: 15.05(6)
logβ^H2L [3, 12]: 14.27(8)
logβ^H2L [3, 13]: 14.75(8)
logβ^H2L [3, 14]: 14.601(8)
logβ^HL [3, 7]: 12.00(1) ^4
logβ^HL [3, 8]: 12.180(8)
logβ^HL [3, 9]: 12.12(1)
logβ^HL [3, 10]: 12.51(4)
logβ^HL [3, 11]: 12.22(6)
logβ^HL [3, 12]: 11.88(7)
logβ^HL [3, 13]: 12.14(8)
logβ^HL [3, 14]: 12.000(6)
logβ average value ([3]; L + 2H = LH2, t = 25 °C, potentiometry): 14.15(6)
logβ average value ([3]; L + H = LH, t = 25 °C, potentiometry): 11.74(2) ^1
logK^H2L [3, 7]: 2.56
logK^H2L [3, 8]: 2.653
logK^H2L [3, 9]: 2.76
logK^H2L ([3]; t = 25 °C, I = 0.15 mol L^-1 NaCl): 2.46
logK^H2L [3, 10]: 2.67
logK^H2L [3, 11]: 2.83
logK^H2L [3, 12]: 2.39
logK^H2L [3, 13]: 2.61
logK^H2L [3, 14]: 2.601
logβ H-NMR ([4]; L + 2H = LH2): 14.13(1)
logβ H-NMR ([4]; L + H = LH): 11.81(1) ^1
logK1 (protonation constant) [5]: 18.1
logK2 (protonation constant) [5]: 7.01
logK3 (protonation constant) [5]: 2.64
logK2 (protonation constant) [6]: 2.15
